Reference: patent US20080271210A1, “Oryza Sativa Lectin-Like Receptor Kinase 1 (Oslrk1), a Gene Involved in Plant Development” (Temasek Life Sciences Laboratory National University of …, priority 2004, published 2008)

How the values were obtained:
Format in all cases: in vivo, Oryza sativa
[1] = tested on: Oslrk1 gene; assay: Northern-blot of Oslrk1 transcript in WT seedlings treated with hormones and SA; details: 100 uM, 24 hours, WT seedlings
Description: Differential Regulation of Oslrk1 Gene Expression by Hormones. Receptor-like kinases were postulated to be involved in signal transduction events as they perceive a signal via a ligand-binding extracellular domain and transmit it through the serine/threonine kinase domain into the cytosol (Shiu and Bleecker, 2001). In order to know possible factors influencing the Oslrk1 gene regulation, we analyzed promoter of the Oslrk1 (1.5 kb) for the presence of cis-acting elements using the program PlantCARE (Lescot et al., 2002). Three TGAGC motifs observed in MeJA inducible genes were found in promoter of the Oslrk1 at the positions −186, −657 and −1190. Apart from these, three GA3 inducible motifs (P-box-CCTTxt) −101, −206 and −740 bp upstream of the Oslrk1 ORF were located. In addition, five salicylic acid inducible motifs (TCA-elementcAGAAa/ga) at the positions of −321, −601, −604, −855 and −1135 were detected. The presence of MeJA, GA and SA responsive cis-elements in the Oslrk1 promoter indicated possible regulatory roles of these factors. The promoter analysis led us to study the effect of different hormones and compounds on the Oslrk1 transcription. The WT seeds were germinated for […] then seedlings were transferred to the medium containing one of the following chemicals: […], MeJA, GA3 or ABA at concentration 100 uM and SA (5 mM) for 24 hours (Materials and Methods). The total RNA isolated from the untreated and treated seedlings were used in Northern-blot hybridization using 3′ UTR of the Oslrk1 gene as a probe. The treatment with GA3 and SA repressed the Oslrk1 gene expression (FIG. 8A) by 2.5 and 3.3 times respectively. […] In order to confirm the level of induction of the Oslrk1 gene by MeJA over time, in another series of experiments, a time course was performed after hormone treatment. Seven day old seedlings were sprayed with 100 uM of MeJA solution and they were harvested in 1, 2, 4, 6, 8, and 12 hours.
RNA Isolation and Northern-blot Analysis. RNA was isolated from different organs of rice plant at different developmental stages (roots of 10-14 days old seedlings and 2 months old plants, 10-14 days old seedlings, young and mature leaves, panicles at the flowering stage and calli) using a RNeasy Plant mini kit (Qiagen,). The RNA (10 ug) was fractionated on a 1.2% denaturating formaldehyde agarose gel and transferred onto a Hybond-N^+ membrane (Amersham). The bolts were hybridized with dogoxigenin (DIG)-labeled probes in DIG Easy Hyb solution (Roche) at 50° C. After hybridization, membranes were washed twice with 2×SSC and 0.1% SDS for 15 min, then twice with 0.5×SSC and 0.1% SDS for 15 min at 68° C. Detection was carried out according to manufacturer using DIG Wash and Block Buffer set and chemiluminescent substrate CDP Star™ (Roche). DIG-labelled probe corresponded to 3′UTR and lectin domain of Oslrk1 was used. For the control of RNA quantity, DIG-probe corresponding to rice Actin1 gene was synthesized using the following primers: […]
The RT-PCRs and Northern blots were repeated at least thrice and similar results were obtained. The quantification of the intensity of the hybridization signals was performed using Quantity ONE 4.5.0 software in Gel doc XR documentation system (Bio-Rad Laboratories, Inc., USA). The level of actual expression was calculated as a ratio of intensity of specific signal (Oslrk1 3′UTR probe) to the intensity of signal of positive control (rice Act1).
Treatment of WT Seedlings with Hormones and Sugars. Two week old WT seedlings were transferred to MS medium containing 100 μM of different hormones, such as Indole 3-Acetic Acid (IAA), Abscisic acid (ABA), Methyl Jasmonate (MeJA), or Gibbrellic Acid (GA3) and 5 mM of Salicylic Acid (SA), and were grown for 24 hours under normal day/light conditions. Total RNA was extracted from root of the seedlings and whole seedlings. […]

[2] = tested on: Oslrk10; assay: RT-PCR of Oslrks in treated 2 week-old seedlings; details: Rt, treated vs control
Procedure: (§1) RT-PCRs were carried out on RNA samples isolated from 2 week-old seedlings treated with various sugar (FIG. 13), hormone (FIG. 14), and abiotic stresses (FIG. 15) using primers designated to either 3′ or 5′ Untranslated Regions (UTRs) of the 15 Oslrks found in Table 2. For each Oslrk two lanes in the gel are found, the first lane is the control and the second one treatment samples.
(§2) Table 3 provides a summary of all the above referenced data on the Oslrks, showing the RT-PCR results of various treatments, including sugar, hormone and abiotic stress and northern blot results on various tissues of rice plant grown in normal conditions, and the ESTs, or cDNAs availability in the database. In the table, “I” represents induced expression and “R” represents repressed expression.

[3] = tested on: Oslrk11; assay: RT-PCR of Oslrks in treated 2 week-old seedlings; details: Sh, treated vs control
Procedure: as §1, §2

[4] = tested on: Oslrk12; assay: RT-PCR of Oslrks in treated 2 week-old seedlings; details: treated vs control
Procedure: as §1, §2

[5] = tested on: Oslrk14; assay: RT-PCR of Oslrks in treated 2 week-old seedlings; details: treated vs control
Procedure: as §1, §2

[6] = tested on: Oslrk1; assay: RT-PCR of Oslrks in treated 2 week-old seedlings; details: treated vs control
Procedure: as §1, §2

[7] = tested on: Oslrk2; assay: RT-PCR of Oslrks in treated 2 week-old seedlings; details: treated vs control
Procedure: as §1, §2

[8] = tested on: Oslrk4; assay: RT-PCR of Oslrks in treated 2 week-old seedlings; details: treated vs control
Procedure: as §1, §2

[9] = tested on: Oslrk5; assay: RT-PCR of Oslrks in treated 2 week-old seedlings; details: treated vs control
Procedure: as §1, §2

[10] = tested on: Oslrk6; assay: RT-PCR of Oslrks in treated 2 week-old seedlings; details: treated vs control
Procedure: as §1, §2

[11] = tested on: Oslrk8; assay: RT-PCR of Oslrks in treated 2 week-old seedlings; details: Sh, treated vs control
Procedure: as §1, §2

With `CC1=CC(=O)CC(C)(C)[C@@]1(O)/C=C/C(C)=C\C(=O)O` [ABA, Abscisic acid] the “effect on Oslrk1 transcription” value [1] was “no significant effect”, the “Oslrk10 expression by RT-PCR, Rt” value [2] was “R” and the “Oslrk11 expression by RT-PCR, Sh” value [3] was “I”. For the same compound, the “Oslrk12 expression by RT-PCR, Sh” value [4] was “I”, the “Oslrk14 expression by RT-PCR, Sh” value [5] was “I” and the “Oslrk1 expression by RT-PCR, Sh” value [6] was “R”. For the same compound, the “Oslrk2 expression by RT-PCR, Rt” value ([7]; Rt) was “I”, the “Oslrk2 expression by RT-PCR, Sh” value ([7]; Sh) was “I” and the “Oslrk4 expression by RT-PCR, Rt” value ([8]; Rt) was “I”. The “Oslrk4 expression by RT-PCR, Sh” value ([8]; Sh) was “I”, the “Oslrk5 expression by RT-PCR, Rt” value ([9]; Rt) was “I” and the “Oslrk5 expression by RT-PCR, Sh” value ([9]; Sh) was “I”. For the same compound, the “Oslrk6 expression by RT-PCR, Sh” value [10] was “R” and the “Oslrk8 expression by RT-PCR, Sh” value [11] was “I”.
